Results as given in patent US20060004029A1, “Nitrogen-containing aromatic derivatives” (priority 2003, published 2006).

Test system: KP-1/VEGF human pancreatic cancer cells
Experiment: In vivo angiogenesis-inducing activity using mouse dorsal air sac model
Settings: oral, once a day, C57BL/6N female mice, 4th day
Description: PCR was conducted using a human placenta cDNA library (Toyobo Co., Ltd.) as the template and the SEQ ID NO:1 (5′[…]3′) and SEQ ID NO:2 (5′[…]3′) of VEGF as primers. After completion of the PCR reaction, the 5′ ends were phosphorylated and an approximately 600 bp DNA band was separated by 1.2% agarose gel electrophoresis. After polymerization by self-ligation, the cDNA was cut with EcoRI and BamHI and inserted into the EcoRI and BamHI sites of vector pUC19. This was used to transform E. coli JM83, and plasmids were recovered from the transformed clones. A VEGF cDNA fragment was cut out of the plasmids with HindIII and EcoRI and then inserted into pIRES2-rsGFP vector to yield pIRES2-rsGFP/VEGF for protein expression.
After overnight culturing of KP-1 human pancreatic cancer cells (3×10^6 cells) with 10% FCS-containing RPMI 1640 medium, an Effectene Transfection Reagent Kit (Qiagen) was used for introduction of 3 μg of pIRES2-rsGFP/VEGF into the KP-1 cells. After culturing in 10% FCS-containing RPMI 1640 medium containing 600 μg/ml of Geneticin, drug-resistant cells were selected. Furthermore, GFP high-expressing cells were collected by cell sorter (Becton Dickinson) as VEGF high-expressing KP-1 cells (KP-1/VEGF).
The KP-1/VEGF cells were prepared to 5×10^5 cells/ml, and 0.5 ml thereof was dispensed into each well of a 24-well plate and cultured at 37° C. for 24 hours. The culture supernatants were collected and the VEGF levels thereof measured using a VEGF measuring kit (IBL Co., Ltd.) for confirmation of high expression.
Millipore rings (Nihon Millipore) were sealed with 0.45 μm Durapore filter membranes (Nihon Millipore) to create chambers. KP-1/VEGF human pancreatic cancer cells (3×10^6) suspended in 0.17 ml of collagen gel were injected into each chamber through the injection port, and the chambers were sealed. Approximately 10 ml of air was then injected in the dorsal skin of 6-week-old C57BL/6N female mice under anesthesia to produce pouches, and the prepared chambers were transplanted therein. About 6 hours after completing transplantation, a test substance suspended in 0.5% methyl cellulose was orally administered (0.1 ml/10 g body weight), and this was continued once a day for the next 4 days.
On the 4th day after transplanting the chambers, 0.2 ml of ^51Cr (Amersham Pharmacia)-labeled mouse erythrocytes (2.5×10^6 cpm/ml) were injected through the caudal veins of each of the mice with the transplanted chambers. After a prescribed period, the skin in contact with the chamber was excised and frozen, the section in direct contact with the chamber was precisely cut off, and the radioactivity was measured with a Y-counter. The blood volume was calculated from the radioactivity and used as an index of the in vivo angiogenesis-inducing activity. The angiogenesis volume was recorded as this measured blood volume minus the blood volume obtained with transplantation of a chamber containing only collagen gel. The experiment was conducted using 10 mice in the control (solvent-administered) group and 5 mice in each compound-administered group.

SMILES	proportion of the angiogenesis amount after administering test substance to that of control (30 mg/kg/day)	proportion of the angiogenesis amount after administering test substance to that of control (100 mg/kg/day)
CNC(=O)n1ccc2cc(Oc3ccnc(NC(=O)N4CCC(N5CCCC5)CC4)c3)ccc21 [Example 46, N1-Methyl-5-(2-(((4-(pyrrolidin-1-yl)piperidin-1-yl)carbonyl)amino)pyridin-4-yloxy)-1H-1-indolecarboxamide]	59.9%	43.7%
CNC(=O)n1ccc2cc(Oc3ccnc(NC(=O)N4CCC(N5CCCCC5)CC4)c3)ccc21 [Example 47, N1-Methyl-5-(2-(((4-(piperidin-1-yl)piperidin-1-yl)carbonyl)amino)pyridin-4-yloxy)-1H-1-indolecarboxamide]	87.4%	39.5%
CNC(=O)n1ccc2cc(Oc3ccnc(NC(=O)N4CCOCC4)c3)ccc21 [Example 53, N4-(4-(1-(Methylamino)carbonyl-1H-5-indolyl)oxy-2-pyridyl)-4-morpholinecarboxamide]	43.3%	44.4%
